# Tests used:
# [1] = test system: K. pneumonia (ATCC 43816); experiment: Minimal Inhibitory Concentration (MIC) assay, K. pneumonia; assay type: cell-based; conditions: Klebsiella pneumoniae; K. pneumoniae ATCC43816, CAMHB, 20 hours at 35° C.; read-out: MIC K. pneumoniae ATCC43816
# Description: (§1) Example 122: Minimal Inhibitory Concentration Protocol (MIC) Assay
# (§2) The in vitro potency of compounds to inhibit E. coli (ATCC 25922) and K. pneumonia (ATCC 43816) growth was assessed by MIC (Minimal Inhibitory Concentration) assay. Samples were prepared from 10 mM DMSO stock solutions. After serial 2-fold dilution in DMSO in a master plate (Greiner, Cat No: 651201), 180 μL sterile distilled water was added to 20 μL each aliquot of the samples. Then 10 μL diluted compounds were transferred into a new assay plate (Costar, 3599).
# (§3) The growth medium Cation-Adjusted Mueller Hinton Broth (CAMHB) was prepared by adding the 20 mg per liter CaCl2) and 20 mg per liter MgCl2 into the MHB medium (Jianglai Company, sterilized).
# (§4) Vials of each of the test microorganisms were maintained frozen in the vapor phase of a liquid nitrogen freezer. The bacteria E. coli ATCC 25922 (KWIKSTIK, 0335K) and K. pneumonia ATCC 43816 were taken out from liquid nitrogen freezer, then thawed in room temperature, and diluted in the CAMHB medium to achieve a final inoculum of 5×10^5 CFU/mL. 90 μL CAMHB with bacteria was dispensed to the assay plate and pipetted 5 times.
# (§5) Then the assay plates were incubated for 20 hours at 35° C. in ambient air. Following incubation, the MIC (μg/mL), the lowest concentration of drug that inhibits visible growth of the microorganism was read and recorded throw the microscope.
# E. coli (ATCC 25922) = experiment: Minimal Inhibitory Concentration (MIC) assay, E. coli; assay type: cell-based; conditions: Escherichia coli, ATCC25922; E. coli ATCC 25922, CAMHB, 20 hours at 35° C.; read-out: MIC E. coli ATCC 25922
# Description: as §1, §2, §3, §4, §5
# [2] = molecular target: Escherichia coli LpxH (UDP-2,3-diacylglucosamine hydrolase) (Escherichia coli (strain K12), UniProt P43341); experiment: 50% Inhibitory Concentration (IC50) to LpxH, UMP/CMP-Glo Glycosyltransferase Assay kit; assay type: biochemical
# Description: Example 121: 50% Inhibitory Concentration (IC50) to UDP-2,3-diacylglucosamine hydrolase (LpxH)
# The inhibitory potency of molecules to UDP-2,3-diacylglucosamine hydrolase (LpxH) was determined using the UMP/CMP-Glo™ Glycosyltransferase Assay kit. LpxH hydrolyzes the pyrophosphate bond of UDP-2,3-diacylglucosamine (UDP-DAG) to yield 2,3-diacylglucosamine 1-phosphate (lipid X) and UMP. The assay kit could quantify the UMP production by convert the UMP to ATP and generate light in a luciferase reaction. The compound's effect on the LpxH activity is detected by measuring the light using a luminometer (Envision).
# Escherichia coli LpxH (UDP-2,3-diacylglucosamine hydrolase), sequence (P43341 whole entry): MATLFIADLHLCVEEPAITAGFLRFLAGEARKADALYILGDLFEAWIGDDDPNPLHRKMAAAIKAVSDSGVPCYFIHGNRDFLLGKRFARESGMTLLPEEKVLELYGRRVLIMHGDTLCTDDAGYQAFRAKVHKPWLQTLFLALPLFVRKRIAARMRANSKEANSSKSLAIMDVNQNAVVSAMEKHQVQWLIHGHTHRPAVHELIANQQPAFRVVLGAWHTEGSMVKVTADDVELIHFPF
Compound,MIC [1] [µg/mL],MIC (E. coli (ATCC 25922)) [µg/mL],IC50 [2] [nM]
"NCCN1CCC2(CC1)CN(c1ccc(S(=O)(=O)N3CCN(c4cc(C(F)(F)F)cc(Cl)n4)CC3)cc1)C(=O)O2 [Example 24, 8-(2-Aminoethyl)-3-[4-[4-[6-chloro-4-(trifluoromethyl)-2-pyridyl]piperazin-1-yl]sulfonylphenyl]-1-oxa-3,8-diazaspiro[4.5]decan-2-one]",2.24,2.24,14.9
"NCCN1CCC[C@H]2OC(=O)N(c3ccc(S(=O)(=O)N4CCN(c5cc(C(F)(F)F)cc(Cl)n5)CC4)cc3)[C@H]2C1 [Example 25, (3aS,8aR)-5-(2-aminoethyl)-3-[4-[4-[6-chloro-4-(trifluoromethyl)-2-pyridyl]piperazin-1-yl]sulfonylphenyl]-3a,4,6,7,8,8a-hexahydrooxazolo[4,5-c]azepin-2-one]",2.6,2.6,24.9
"CNCCN1CCC[C@H]2OC(=O)N(c3ccc(S(=O)(=O)N4CCN(c5cc(C(F)(F)F)cc(Cl)n5)CC4)cc3)[C@H]2C1 [Example 26, (3aS,8aR)-3-[4-[4-[6-chloro-4-(trifluoromethyl)-2-pyridyl]piperazin-1-yl]sulfonylphenyl]-5-[2-(methylamino)ethyl]-3a,4,6,7,8,8a-hexahydrooxazolo[4,5-c]azepin-2-one]",5.28,2.64,32.4
"CNCC1CN(c2ccc(S(=O)(=O)N3CCN(c4cc(C(F)(F)F)cc(Cl)n4)CC3)cc2)C(=O)O1 (stereo not drawn) [Example 27, 3-[4-[4-[6-Chloro-4-(trifluoromethyl)-2-pyridyl]piperazin-1-yl]sulfonylphenyl]-5-(methylaminomethyl)oxazolidin-2-one]",3.57,1.78,22.5
"CN(C)CC1CN(c2ccc(S(=O)(=O)N3CCN(c4cc(C(F)(F)F)cc(Cl)n4)CC3)cc2)C(=O)O1 (stereo not drawn) [Example 28, 3-[4-[4-[6-Chloro-4-(trifluoromethyl)-2-pyridyl]piperazin-1-yl]sulfonylphenyl]-5-[(dimethylamino)methyl]oxazolidin-2-one]",1.83,1.83,12.8
"O=C1OC(CN2CCNCC2)CN1c1ccc(S(=O)(=O)N2CCN(c3cc(C(F)(F)F)cc(Cl)n3)CC2)cc1 (stereo not drawn) [Example 29, 3-[4-[4-[6-Chloro-4-(trifluoromethyl)-2-pyridyl]piperazin-1-yl]sulfonylphenyl]-5-(piperazin-1-ylmethyl)oxazolidin-2-one]",1.96,1.96,25.5
"O=C1OC(CN2C[C@@H](O)[C@@H](O)C2)CN1c1ccc(S(=O)(=O)N2CCN(c3cc(C(F)(F)F)cc(Cl)n3)CC2)cc1 (stereo partly drawn) [Example 30, 3-[4-[4-[6-Chloro-4-(trifluoromethyl)-2-pyridyl]piperazin-1-yl]sulfonylphenyl]-5-[[cis-3,4-dihydroxypyrrolidin-1-yl]methyl]oxazolidin-2-one]",4.02,2.01,14.9
"NC1CN(CC2CN(c3ccc(S(=O)(=O)N4CCN(c5cc(C(F)(F)F)cc(Cl)n5)CC4)cc3)C(=O)O2)C1 (stereo not drawn) [Example 31, 5-[(3-Aminoazetidin-1-yl)methyl]-3-[4-[4-[6-chloro-4-(trifluoromethyl)-2-pyridyl]piperazin-1-yl]sulfonylphenyl]oxazolidin-2-one]",4.31,2.15,6.96
"O=C1OC(CN2CC3(CNC3)C2)CN1c1ccc(S(=O)(=O)N2CCN(c3cc(C(F)(F)F)cc(Cl)n3)CC2)cc1 (stereo not drawn) [Example 32, 3-[4-[4-[6-Chloro-4-(trifluoromethyl)-2-pyridyl]piperazin-1-yl]sulfonylphenyl]-5-(2,6-diazaspiro[3.3]heptan-2-ylmethyl)oxazolidin-2-one]",8.94,8.94,25
"NCC1CN(CC2CN(c3ccc(S(=O)(=O)N4CCN(c5cc(C(F)(F)F)cc(Cl)n5)CC4)cc3)C(=O)O2)C1 (stereo not drawn) [Example 33, 5-[[3-(Aminomethyl)azetidin-1-yl]methyl]-3-[4-[4-[6-chloro-4-(trifluoromethyl)-2-pyridyl]piperazin-1-yl]sulfonylphenyl]oxazolidin-2-one]",2.2,1.1,15.3
"O=C1OC(CNC2CCNC2)CN1c1ccc(S(=O)(=O)N2CCN(c3cc(C(F)(F)F)cc(Cl)n3)CC2)cc1 (stereo not drawn) [Example 34, 3-[4-[4-[6-Chloro-4-(trifluoromethyl)-2-pyridyl]piperazin-1-yl]sulfonylphenyl]-5-[(pyrrolidin-3-ylamino)methyl]oxazolidin-2-one]",4.39,4.39,27.2
"NCC1CN(CC2CC(=O)N(c3ccc(S(=O)(=O)N4CCN(c5cc(C(F)(F)F)cc(Cl)n5)CC4)cc3)C2)C1 (stereo not drawn) [Example 35, 4-[[3-(Aminomethyl)azetidin-1-yl]methyl]-1-[4-[4-[6-chloro-4-(trifluoromethyl)-2-pyridyl]piperazin-1-yl]sulfonylphenyl]pyrrolidin-2-one]",1.27,0.64,< 3.41
"CN1CCN(CC2CC(=O)N(c3ccc(S(=O)(=O)N4CCN(c5cc(C(F)(F)F)cc(Cl)n5)CC4)cc3)C2)CC1 (stereo not drawn) [Example 36, 1-[4-[4-[6-Chloro-4-(trifluoromethyl)-2-pyridyl]piperazin-1-yl]sulfonylphenyl]-4-[(4-methylpiperazin-1-yl)methyl]pyrrolidin-2-one]",3.76,1.88,26.6
"CN(C)CC1CN(CC2CC(=O)N(c3ccc(S(=O)(=O)N4CCN(c5cc(C(F)(F)F)cc(Cl)n5)CC4)cc3)C2)C1 (stereo not drawn) [Example 37, 1-[4-[4-[6-Chloro-4-(trifluoromethyl)-2-pyridyl]piperazin-1-yl]sulfonylphenyl]-4-[[3-[(dimethylamino)methyl]azetidin-1-yl]methyl]pyrrolidin-2-one]",5.27,2.64,48.8
"O=C1CC(CNCC2CNC2)CN1c1ccc(S(=O)(=O)N2CCN(c3cc(C(F)(F)F)cc(Cl)n3)CC2)cc1 (stereo not drawn) [Example 38, 4-[(Azetidin-3-ylmethylamino)methyl]-1-[4-[4-[6-chloro-4-(trifluoromethyl)-2-pyridyl]piperazin-1-yl]sulfonylphenyl]pyrrolidin-2-one]",5.09,5.09,47.7
"NC1(C2CN(CC3CC(=O)N(c4ccc(S(=O)(=O)N5CCN(c6cc(C(F)(F)F)cc(Cl)n6)CC5)cc4)C3)C2)CC1 (stereo not drawn) [Example 39, 4-[[3-(1-Aminocyclopropyl)azetidin-1-yl]methyl]-1-[4-[4-[6-chloro-4-(trifluoromethyl)-2-pyridyl]piperazin-1-yl]sulfonylphenyl]pyrrolidin-2-one]",1.92,0.96,13
"NC1CN(CC2CC(=O)N(c3ccc(S(=O)(=O)N4CCN(c5cc(C(F)(F)F)cc(Cl)n5)CC4)cc3)C2)C1 (stereo not drawn) [Example 40, 4-[(3-Aminoazetidin-1-yl)methyl]-1-[4-[4-[6-chloro-4-(trifluoromethyl)-2-pyridyl]piperazin-1-yl]sulfonylphenyl]pyrrolidin-2-one]",1.79,1.79,20.9
"O=C1CC(CN2CCNCC2)CN1c1ccc(S(=O)(=O)N2CCN(c3cc(C(F)(F)F)cc(Cl)n3)CC2)cc1 (stereo not drawn) [Example 41, 1-[4-[4-[6-Chloro-4-(trifluoromethyl)-2-pyridyl]piperazin-1-yl]sulfonylphenyl]-4-(piperazin-1-ylmethyl)pyrrolidin-2-one]",2.55,1.27,10.2
"CN(C)C1CN(CC2CC(=O)N(c3ccc(S(=O)(=O)N4CCN(c5cc(C(F)(F)F)cc(Cl)n5)CC4)cc3)C2)C1 (stereo not drawn) [Example 42, 1-[4-[4-[6-Chloro-4-(trifluoromethyl)-2-pyridyl]piperazin-1-yl]sulfonylphenyl]-4-[[3-(dimethylamino)azetidin-1-yl]methyl]pyrrolidin-2-one]",10.4,10.4,15
"CNC1CN(CC2CC(=O)N(c3ccc(S(=O)(=O)N4CCN(c5cc(C(F)(F)F)cc(Cl)n5)CC4)cc3)C2)C1 (stereo not drawn) [Example 43, 1-[4-[4-[6-Chloro-4-(trifluoromethyl)-2-pyridyl]piperazin-1-yl]sulfonylphenyl]-4-[[3-(methylamino)azetidin-1-yl]methyl]pyrrolidin-2-one]",5.09,3.82,15.3

# Source: patent US20250011300A1, “PIPERAZINYLSULFONYLARYL COMPOUNDS FOR TREATMENT OF BACTERIAL INFECTIONS” (Hoffmann-La Roche Inc., priority 2021, published 2025)
